Data set [1] in a line: inhibitors of intracellular T. cruzi replication, confirmation, NIH3T3 host cells, beta-gal luminescence (AID 2044).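 Note: intracellular parasites grown in NIH/3T3 mouse fibroblasts as host cells; luminescent beta-galactosidase reporter signal from transgenic T. cruzi replicating inside host cells; inhibitors lower the luminescence signal.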 Format: functional, cell-based.
Data set [2] is described as follows: cytotoxicity toward NIH3T3 fibroblasts, dose response, counter-screen, cell-based, ATP luminescence, mouse fibroblasts (AID 2010).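 Note: cells exposed to compound for about 90 hours before reading.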 Format: functional. (In general: Counterscreens check selectivity or assay interference.)
The target of data set [3] is T1, Cytochrome P450 1A2 (Homo sapiens, UniProt P05177).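 Note: PubChem cytochrome P450 panel assay, CYP1A2 panel member.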
T1 sequence (P05177 whole entry): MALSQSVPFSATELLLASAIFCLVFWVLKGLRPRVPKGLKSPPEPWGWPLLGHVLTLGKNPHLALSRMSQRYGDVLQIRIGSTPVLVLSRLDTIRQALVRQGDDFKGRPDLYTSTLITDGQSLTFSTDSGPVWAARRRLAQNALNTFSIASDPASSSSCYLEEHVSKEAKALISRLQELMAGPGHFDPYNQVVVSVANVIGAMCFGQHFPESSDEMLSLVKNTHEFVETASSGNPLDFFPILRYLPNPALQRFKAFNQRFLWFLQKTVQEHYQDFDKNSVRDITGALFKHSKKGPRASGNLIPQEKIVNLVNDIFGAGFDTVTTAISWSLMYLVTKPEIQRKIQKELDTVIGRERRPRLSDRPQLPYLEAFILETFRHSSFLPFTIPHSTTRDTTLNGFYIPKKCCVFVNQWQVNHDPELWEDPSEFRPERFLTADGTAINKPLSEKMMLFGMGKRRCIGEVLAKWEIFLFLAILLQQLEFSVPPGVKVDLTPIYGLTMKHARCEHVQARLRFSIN

In data set [4] the target is Cytochrome P450 2C19 (Homo sapiens, UniProt P33261). Put plainly: Cytochrome panel assay with activity outcomes. Panel member name: p450-cyp2c19 Compounds with AC50 equal or less than 10 uM are considered active. Format: functional.
Data set [5] has as its system Streptococcus. In words: Group A Streptococcus viability loss, dose response, counter-screen for streptokinase expression inhibitor project, luminescence, BacTiterGlo (AID 1915).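 Note: potency for reduction of bacterial viability or growth.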 Format: functional, organism-based.
Data set [6] concerns Streptococcus sp. 'group A'. In words: growth inhibition of control SK(-) GAS strain, dose response, counter-screen for streptokinase expression inhibitor project, luminescence, kanamycin, BacTiterGlo, confirmation (AID 1900). Format: functional, organism-based.

Active and inactive are the calls of the source.

Cytochrome P450 2C19, sequence (P33261 whole entry): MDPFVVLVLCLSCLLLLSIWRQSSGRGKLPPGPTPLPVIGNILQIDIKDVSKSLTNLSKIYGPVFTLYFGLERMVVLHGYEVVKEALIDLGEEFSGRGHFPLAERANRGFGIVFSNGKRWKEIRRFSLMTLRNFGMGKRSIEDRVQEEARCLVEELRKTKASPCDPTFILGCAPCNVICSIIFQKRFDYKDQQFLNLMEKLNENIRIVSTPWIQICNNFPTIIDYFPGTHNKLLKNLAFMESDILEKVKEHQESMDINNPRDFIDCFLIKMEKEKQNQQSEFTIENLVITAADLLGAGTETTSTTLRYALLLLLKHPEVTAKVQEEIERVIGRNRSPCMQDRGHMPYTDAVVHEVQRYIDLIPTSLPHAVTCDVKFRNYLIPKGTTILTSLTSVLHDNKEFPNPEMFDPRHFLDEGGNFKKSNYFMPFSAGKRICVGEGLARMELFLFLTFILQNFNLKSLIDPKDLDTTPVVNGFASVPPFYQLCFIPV

With `O=C(c1ccc(Cn2c(=S)[nH]c3ccc(N4CCOCC4)cc3c2=O)cc1)N1CCN(c2ccc(F)cc2)CC1`, the EC50 (usually the concentration giving half of the maximal effect) in data set [1] is 0.583 µM (active); in data set [2] it was > 60 µM (not active).

Take `C/C(=N\OC(=O)c1ccc(F)cc1)c1nccs1`: the AC50 (usually the concentration at which the activity in the assay is half-maximal) in data set [3] was 28.2 µM (inconclusive).

For the molecule `CN1CCC(OC(=O)c2ccccc2)CC1`, the values for the EC50 in data set [1] and in data set [2] were 0.263 µM (active) and 58.6 µM (active), respectively.

In the case of `Cc1ccc(C(=O)C[n+]2cccc3cc(C)ccc32)cc1`, the EC50 in data set [1] is 11.2 µM (active); in data set [2] it was > 60 µM (inconclusive).

For `COc1cccc(-c2cc(NCc3cccs3)ncn2)c1`, the AC50 in data set [4] (read-out: AC50) was 25.1 µM (inconclusive).

As to `O=C(Nc1ccccc1)N1CCSc2cc(Cl)ccc21`, the AC50 in data set [3] was 3.55 µM (inconclusive).

`CCOC(=O)N1CCN(C(=O)c2ccc3c(c2)NC(=O)/C(=C/c2ccccc2)S3)CC1`: the EC50 in data set [5] was 4.42 µM (active); in data set [6], 1.48 µM (active).

`Cc1ccc(C(=O)NNC(=O)C2CCCN(c3ncccn3)C2)cc1` (stereo not drawn): in data set [4] (read-out: AC50), the AC50 was 39.8 µM (inconclusive).

Turning to `O=C(O)c1cccnc1SCC(=O)N1CCCCCC1`, the AC50 entry in data set [4] was “inconclusive”.

Consider `CCN(CC)CCCNC(=O)c1oc2ccc(S(=O)(=O)N3CC(C)CC(C)C3)cc2c1C` (stereo not drawn), for which the values for the EC50 in data set [1] and in data set [2] were 0.422 µM (active) and > 30 µM (not active), respectively.

For the molecule `COc1cc(NC(=O)COC(=O)/C=C/c2c(C)nn(-c3ccc(F)cc3)c2Cl)cc(OC)c1`, the results for the EC50 in data set [1] and in data set [2] were 0.691 µM (active) and > 60 µM (not active), respectively.

With `COC(=O)C1(C)C=C2C(=C(C)C(=O)C2C)CN1` (stereo not drawn), in data set [3], the AC50 is 31.6 µM (inconclusive).

Take `O=c1c(-c2ccccc2)nc2cncnc2n1C1CC1`: in data set [4] (read-out: AC50), the AC50 was 3.16 µM (inconclusive).

As to `C#C[C@@]1(O)CC[C@@H]2[C@@H]3CCC4=CC(=O)CC[C@@]4(C)[C@H]3CC[C@]21C`, the AC50 in data set [4] (read-out: AC50) was 0.501 µM (inconclusive).

Turning to `CCN(Cc1ccncc1)C(=O)c1cc(COc2ccc(C)c(C)c2)on1`, the half-maximal effective concentration (EC50) is 1.07 µM (active) in data set [1] and > 60 µM (not active) in data set [2].

Regarding `Cc1ccc(C(C(=O)NCc2ccco2)N(C(=O)CNC(=O)c2cccs2)c2ccc(C)cc2)cc1` (stereo not drawn), the AC50 in data set [4] (read-out: AC50) is 2.51 µM (inconclusive).

`Cc1c(Cl)ccc2c(C(=O)Nc3cc(C(C)(C)C)on3)cc(-c3ccccn3)nc12`: the values for the EC50 in data set [1] and in data set [2] were 1.95 µM (active) and > 60 µM (not active), respectively.

For `COc1cccc(Cn2c(=O)c(-c3ccc(F)cc3)nc3cnc(N4CCOCC4)nc32)c1`, the AC50 result in data set [4] was “inconclusive”.

Take `CCC1CCc2sc(C(=O)NCC(c3ccc(OC)cc3)N3CCCC3)cc2C1` (stereo not drawn): the EC50 in data set [1] was 1.83 µM (active); in data set [2], > 60 µM (not active).

`Cc1ccc(SCCNC(=O)c2ccc(C)c(S(=O)(=O)Nc3ccccc3C)c2)cc1`: the AC50 in data set [3] is 14.1 µM (inconclusive).

Turning to `Fc1ccc(Cn2c(SCc3ccc(F)c(F)c3)nnc2C(F)(F)F)cc1`, the AC50 in data set [3] is 17.8 µM (inconclusive).

With `C/C(=N/NC(N)=S)c1ccc(Br)s1`, the 50% effective concentration (EC50) in data set [1] is 2.07 µM (active); in data set [2] it was > 60 µM (not active).

As to `CC1CN(C(=O)COc2ncnc3ccccc23)CC(C)O1` (stereo not drawn), the AC50 in data set [4] (read-out: AC50) was 39.8 µM (inconclusive).

As for `C[C@@H](C(=O)OC1C[C@H]2CC[C@@H](C1)N2C)c1ccc(Br)cc1` (stereo partly drawn), in data set [3], the AC50 was 39.8 µM (inconclusive).

With `Cc1cccc(-n2c(=O)c3c(n4cnnc24)-c2ccccc2CC32CCCCC2)c1`, in data set [3], the AC50 is 22.4 µM (inconclusive).

With `Cc1ccc(-c2ccc(CCC(=O)O)n2CC2CCCO2)cc1` (stereo not drawn), the AC50 in data set [4] (read-out: AC50) was 14.1 µM (inconclusive).

As for `SC(COCc1ccccc1)CN1CCN(Cc2ccc3c(c2)OCO3)CC1` (stereo not drawn), the EC50 in data set [1] is 2.1 µM (active); in data set [2], > 60 µM (not active).

Turning to `c1ccc(CCNc2nc(-c3ccncc3)cs2)cc1`, the EC50 was 1.8 µM (active) in data set [1] and > 60 µM (not active) in data set [2].

`O=[N+]([O-])c1nn(-c2ccc3c(c2)OCCO3)[n+]([O-])c1NC1CCN(Cc2ccccc2)CC1`: the EC50 in data set [1] is 0.163 µM (active); in data set [2] it was > 60 µM (not active).

For `CCCCc1ccc(NC(S)=NCc2cccc(OC)c2)cc1`, the EC50 in data set [1] is 3.51 µM (active); in data set [2], > 60 µM (not active).

As to `CCCOc1ccc(N2C(=O)CC(SC(=N)N3N=C(c4ccccc4)CC3c3ccccc3)C2=O)cc1` (stereo not drawn), the EC50 in data set [1] was 2.05 µM (active); in data set [2], > 60 µM (not active).

For `O=C(NC(NC(=S)Nc1cc(Cl)ccc1Cl)C(Cl)(Cl)Cl)c1ccco1` (stereo not drawn), the AC50 in data set [3] was 12.6 µM (inconclusive).

As to `COc1ccc(CN(Cc2cccnc2)S(=O)(=O)c2ccc(-n3cnnn3)c(C)c2)cc1OC`, the results for the EC50 in data set [1] and in data set [2] were 2.19 µM (active) and > 30 µM (not active), respectively.

`CCN(c1ccccc1)S(=O)(=O)c1ccc(Cl)c(NC(=O)CN2CCCCCC2)c1`: the EC50 is 1.04 µM (active) in data set [1] and > 60 µM (not active) in data set [2].

For `COC(=O)c1ccc(OC)c(CN2CCCN(Cc3cc(C)ccc3C)S2(=O)=O)c1`, the results for the EC50 in data set [1] and in data set [2] were 1.11 µM (active) and > 60 µM (not active), respectively.

Consider `COc1ccc(NC(=S)N2CCN(C/C=C/c3ccccc3)CC2)cc1OC`, for which the AC50 in data set [4] (read-out: AC50) is 15.8 µM (inconclusive); in data set [3], 28.2 µM (inconclusive).

For the molecule `Cc1ccc2oc(-c3cccc(NC(=S)NC(=O)/C=C/c4ccco4)c3)nc2c1`, the AC50 in data set [3] is 3.55 µM (inconclusive).

On to `CCc1ccccc1NC(=O)NC1CC2CCC(C1)N2Cc1cccs1` (stereo not drawn), for which the AC50 in data set [4] (read-out: AC50) was 17.8 µM (inconclusive).

For the molecule `C/C(Cn1cnc([N+](=O)[O-])n1)=N\NC(=O)c1cccc(F)c1`, the EC50 in data set [1] is 1.39 µM (active); in data set [2], > 60 µM (not active).

On to `Brc1ccc(-c2csc(N/N=C/c3cccnc3)n2)cc1`, for which the results for the concentration giving a half-maximal response (EC50) in data set [1] and in data set [2] were 1.44 µM (active) and > 60 µM (not active), respectively.

As for `COC(=O)c1ccc(/C=C/c2ccc3cccc(OC(C)=O)c3n2)cc1`, the results for the EC50 in data set [5] and in data set [6] were 8.49 µM (active) and 2.08 µM (active), respectively.

For `CN/C(=N/CCSCc1nc[nH]c1C)NC#N` [CIMETIDINE], the AC50 in data set [3] was 50.1 µM (inconclusive).

As to `Brc1ccc2ncnc(Nc3cccc4ccccc34)c2c1`, in data set [4] (read-out: AC50), the AC50 is 2.82 µM (inconclusive).

Take `O=c1c(-c2ccc(F)cc2)nc2cnc(Nc3ccccc3)nc2n1Cc1cccs1`: the AC50 in data set [3] is 2 µM (inconclusive).

In the case of `Cc1c(C(=O)NC(=S)NCc2cccnc2)oc2ccccc12`, the EC50 in data set [1] is 1.93 µM (active); in data set [2] it was > 60 µM (inconclusive).

(Values after ChEMBL document CHEMBL1201862, “PubChem BioAssay data set” (2004).)
